Assays:
Details in all cases: 1000 ppm water, after 21 days
Yellow foxtail = assay: Greenhouse weed control study, yellow foxtail
Procedure: (§1) A greenhouse study was conducted to evaluate efficacy benefits of several candidates.
(§2) Procedure: Product application was made using a DeVries spray booth calibrated to 10 gpa, 40 psi with flat-fan AIXR11002 nozzle. Test plants were placed in a certain zone (Zone 3) of research greenhouse on a wire-mesh raised bench and arranged in a randomized complete block design. […] Environmental conditions averaged high temperature 87° F. to low temperature of 75° F. during trial dates. Average humidity levels ranged from 40% to 90%. Test plants received natural lighting for duration of trial. Test plants were soil watered every twenty-four (24) hours as needed.
(§3) Weeds were evaluated for percent control at 3, 7, 14, and 21-days following application.
(§4) Rating scale used; 0 indicating no control/injury up to 100 indicating complete control of weed species as compared to the untreated check.

Weeds = assay: Greenhouse weed control study, average over the four weeds
Procedure: as §1, §2, §3, §4

Common barnyardgrass = assay: Greenhouse weed control study, common barnyardgrass
Procedure: as §1, §2, §3, §4

Ivyleaf morning glory = assay: Greenhouse weed control study, ivyleaf morning glory
Procedure: as §1, §2, §3, §4

Velvet leaf = assay: Greenhouse weed control study, velvetleaf
Procedure: as §1, §2, §3, §4

[1] = (55% soln) 0.18%, use rate 0.18 % w/w
[2] = (55% soln) 0.45%, use rate 0.45 % w/w
[3] = (80% liquid) 1%, use rate 1 % w/w

Compound: N.N.O=S(=O)(O)O [Ammonium Sulfate]
- Yellow foxtail percent control (Yellow foxtail; 1%, use rate 2.5 % w/w): 40%
- Yellow foxtail percent control (Yellow foxtail; 2%, use rate 5 % w/w): 40%
- Average percent control (Weeds; 1%, use rate 2.5 % w/w): 39.575%
- Average percent control (Weeds; 2%, use rate 5 % w/w): 41.65%
- Common barnyardgrass percent control (Common barnyardgrass; 1%, use rate 2.5 % w/w): 80%
- Common barnyardgrass percent control (Common barnyardgrass; 2%, use rate 5 % w/w): 90%
- Ivyleaf morning glory percent control (Ivyleaf morning glory; 1%, use rate 2.5 % w/w): 20%
- Ivyleaf morning glory percent control (Ivyleaf morning glory; 2%, use rate 5 % w/w): 18.3%
- Velvet leaf percent control (Velvet leaf; 1%, use rate 2.5 % w/w): 18.3%
- Velvet leaf percent control (Velvet leaf; 2%, use rate 5 % w/w): 18.3%

Compound: C[N+](C)(C)CCO.O=C([O-])CC(O)(CC(=O)O)C(=O)O [Choline Dihydrogen Citrate]
- Yellow foxtail percent control (Yellow foxtail; 0.4%, use rate 0.4 % w/w): 40%
- Average percent control (Weeds; 0.4%, use rate 0.4 % w/w): 42.5%
- Common barnyardgrass percent control (Common barnyardgrass; 0.4%, use rate 0.4 % w/w): 83.3%
- Ivyleaf morning glory percent control (Ivyleaf morning glory; 0.4%, use rate 0.4 % w/w): 26.7%
- Velvet leaf percent control (Velvet leaf; 0.4%, use rate 0.4 % w/w): 20%

Compound: O=C(O)CC(O)(CC(=O)O)C(=O)O [Citric acid]
- Yellow foxtail percent control (Yellow foxtail; [1]): 36.7%
- Yellow foxtail percent control (Yellow foxtail; [2]): 50%
- Average percent control (Weeds; [1]): 37.925%
- Average percent control (Weeds; [2]): 36.25%
- Common barnyardgrass percent control (Common barnyardgrass; [1]): 83.3%
- Common barnyardgrass percent control (Common barnyardgrass; [2]): 60%
- Ivyleaf morning glory percent control (Ivyleaf morning glory; [1]): 16.7%
- Ivyleaf morning glory percent control (Ivyleaf morning glory; [2]): 20%
- Velvet leaf percent control (Velvet leaf; [1]): 15%
- Velvet leaf percent control (Velvet leaf; [2]): 15%

Compound: Choline bicarbonate
- Yellow foxtail percent control (Yellow foxtail; [3]): 83.3%
- Average percent control (Weeds; [3]): 34.575%
- Common barnyardgrass percent control (Common barnyardgrass; [3]): 30%
- Ivyleaf morning glory percent control (Ivyleaf morning glory; [3]): 10%
- Velvet leaf percent control (Velvet leaf; [3]): 15%

Reference: patent US12171224B2, “Choline salt and ammonium-free adjuvants for water conditioning and agricultural formulations” (SPECIALTY OPERATIONS FRANCE, priority 2015, dated 2024)
